{"source": "patent US20260097126A1", "about": "“PHARMACEUTICAL FORMULATIONS AND METHODS FOR THE TREATMENT OF METABOLIC AND LIVER DISORDERS” (priority 2022, published 2026)", "key": {"GLP-1 receptor [1]": {"biological_target": "T1, GLP-1 receptor (Homo sapiens, UniProt P43220)", "T1 sequence (P43220 24-463)": "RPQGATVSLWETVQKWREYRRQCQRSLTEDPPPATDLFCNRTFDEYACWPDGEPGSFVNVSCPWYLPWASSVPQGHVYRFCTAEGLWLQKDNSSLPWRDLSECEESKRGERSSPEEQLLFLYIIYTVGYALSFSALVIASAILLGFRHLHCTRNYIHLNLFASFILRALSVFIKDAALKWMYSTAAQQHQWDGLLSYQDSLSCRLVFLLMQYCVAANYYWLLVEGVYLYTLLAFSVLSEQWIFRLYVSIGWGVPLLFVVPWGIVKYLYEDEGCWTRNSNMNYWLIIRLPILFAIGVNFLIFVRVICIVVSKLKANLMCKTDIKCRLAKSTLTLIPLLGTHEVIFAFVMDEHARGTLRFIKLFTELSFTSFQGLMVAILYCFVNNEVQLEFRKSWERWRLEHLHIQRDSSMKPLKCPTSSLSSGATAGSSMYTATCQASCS", "test": "HSA modulated binding assay, GLP-1 receptor"}, "GLP-1 receptor [2]": {"biological_target": "T1, GLP-1 receptor", "test": "TagLite binding assay, GLP-1 receptor"}, "[3]": {"system": "mice fed a Gubra amylin NASH (GAN) diet", "test": "Biological effects in GAN diet-induced NASH mice", "format": "in vivo", "details": "after two weeks", "method": "NASH was induced in mice by feeding mice a Gubra amylin NASH (GAN) diet as described in Boland et al. World J Gastroenterol. 2019, 25(33): 4904-4920. One week prior to administration of a first dose of compounds, the mice were weighed and randomized, and their food intake was measured. Mice were randomly assigned to dosing groups, with twelve mice per group. […] Compound dose titration (nmol/kg): 0.6 (day 0), 1.2 (day 1), 2.4 (day 2), 4.8 (day 3), 4.8 (day 4), 12 (day 5), 30.0 (from day 6).\nAfter two weeks, animals were sacrificed. Plasma enzymes (P-ALT (alanine aminotransferase) and P-AST (aspartate aminotransferase)), total plasma triglycerides, and total plasma cholesterol were measured, and terminal necropsy of each liver was carried out, determining relative liver weight as a percentage of body weight, assaying total liver biochemistry including total liver triglycerides, plasma insulin and total liver cholesterol, as well as histological evaluation of Galectin-3, and alpha-smooth muscle actin."}, "[4]": {"test": "Stability study of Compound 4 formulations", "format": "physicochemical"}, "GIP receptor [5]": {"biological_target": "T2, GIP receptor (Homo sapiens, UniProt P48546)", "T2 sequence (P48546 22-466)": "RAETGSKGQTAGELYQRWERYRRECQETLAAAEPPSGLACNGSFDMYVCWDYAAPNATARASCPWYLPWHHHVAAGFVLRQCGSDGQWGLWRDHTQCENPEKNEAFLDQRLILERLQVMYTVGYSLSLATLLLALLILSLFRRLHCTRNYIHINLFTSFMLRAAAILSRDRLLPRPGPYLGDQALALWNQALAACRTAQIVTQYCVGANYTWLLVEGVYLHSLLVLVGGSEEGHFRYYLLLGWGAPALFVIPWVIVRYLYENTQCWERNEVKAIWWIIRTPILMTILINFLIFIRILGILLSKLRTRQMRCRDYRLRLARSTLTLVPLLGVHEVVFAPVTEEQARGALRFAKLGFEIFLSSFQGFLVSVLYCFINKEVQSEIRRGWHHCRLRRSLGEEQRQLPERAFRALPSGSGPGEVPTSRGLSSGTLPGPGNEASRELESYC", "test": "HSA modulated binding assay, GIP receptor"}, "[6]": {"test": "Pharmacokinetic study of Compounds 4, 14, 15, 17 in monkeys", "details": "cynomolgus monkey, in vivo, sc, 0.2 mg/kg", "method": "The formulations were administered to cynomolgus monkeys at a dose of 0.2 mg/kg. Plasma concentration versus time data was collected and pharmacokinetic values determined."}, "GIP receptor [7]": {"biological_target": "T2, GIP receptor", "test": "TagLite binding assay, GIP receptor"}, "[8]": {"details": "binding with 2% HSA to binding with 0% HSA"}, "[9]": {"details": "liver Galectin-3, histological quantitative assessment"}, "[10]": {"details": "liver alpha-smooth muscle actin, histological quantitative assessment"}, "[11]": {"details": "GMP formulation, 2.5 mg/ml Compound 4, 0.94% propylene glycol, 0.36% phenol, 0.074% dibasic sodium phosphate, 0.005% polysorbate 80, initial"}, "[12]": {"details": "same formulation stored for one month at 25° C./60% R.H."}}}
{"compound": "CC[C@H](C)[C@H](NC(=O)[C@H](CC(C)C)NC(=O)[C@H](Cc1c[nH]c2ccccc12)NC(=O)[C@H](CCC(N)=O)NC(=O)[C@@H](NC(=O)[C@H](Cc1ccccc1)NC(=O)[C@H](C)NC(=O)[C@H](CCCCNC(=O)COCCOCCNC(=O)COCCOCCNC(=O)CC[C@H](NC(=O)CCCCCCCCCCCCCCCCCCP(=O)(O)O)C(=O)O)NC(=O)[C@H](CCC(N)=O)NC(=O)[C@H](C)NC(=O)[C@@H](NC(=O)[C@H](CCCCN)NC(=O)[C@H](CC(=O)O)NC(=O)[C@H](CC(C)C)NC(=O)C(C)(C)NC(=O)[C@@H](NC(=O)[C@H](CO)NC(=O)[C@H](Cc1ccc(O)cc1)NC(=O)[C@H](CC(=O)O)NC(=O)[C@H](CO)NC(=O)[C@@H](NC(=O)[C@H](Cc1ccccc1)NC(=O)[C@@H](NC(=O)CNC(=O)[C@H](CCC(=O)O)NC(=O)C(C)(C)NC(=O)[C@@H](N)Cc1ccc(O)cc1)[C@@H](C)O)[C@@H](C)O)[C@@H](C)CC)[C@@H](C)CC)C(C)C)C(=O)N[C@@H](C)C(=O)NCC(=O)NCC(=O)N1CCC[C@H]1C(=O)N[C@@H](CO)C(=O)N[C@@H](CO)C(=O)NCC(=O)N[C@@H](C)C(=O)N1CCC[C@H]1C(=O)N1CCC[C@H]1C(=O)N1CCC[C@H]1C(=O)N[C@@H](CO)C(N)=O", "note": "[Compound 4]", "values": [{"measurement": "IC50", "setting": "GLP-1 receptor [1]; 0% human serum albumin, read-out: GLP-1 receptor IC 50, 0% HSA", "result": 154, "unit": "nM"}, {"measurement": "GLP-1 receptor Ratio of HSA/No HSA", "setting": "GLP-1 receptor [1]; [8]", "result": 6.42}, {"measurement": "IC50", "setting": "GLP-1 receptor [1]; read-out: GLP-1 receptor IC 50, 2% HSA, 2% human serum albumin", "result": 988, "unit": "nM"}, {"measurement": "IC50", "setting": "GLP-1 receptor [2]; read-out: GLP-1 receptor IC 50", "result": 105, "unit": "nM"}, {"measurement": "liver Galectin-3 compared to tirzepatide or vehicle (in words)", "setting": "[3]", "result": "lower relative and total liver Galectin-3 as compared to administration of tirzepatide or vehicle alone"}, {"measurement": "liver alpha-smooth muscle actin compared to tirzepatide (in words)", "setting": "[3]", "result": "lower relative and total liver alpha-smooth muscle actin as compared to administration of tirzepatide"}, {"measurement": "liver triglycerides compared to tirzepatide or vehicle (in words)", "setting": "[3]", "result": "lower relative and total liver triglycerides as compared to administration of tirzepatide or vehicle alone"}, {"measurement": "Gal-3 Relative", "setting": "[3]; [9]", "result": "6.3 ± 0.3", "unit": "percent fractional area"}, {"measurement": "Gal-3 Total", "setting": "[3]; [9]", "result": "137 ± 15", "unit": "mg"}, {"measurement": "α-SMA Relative", "setting": "[3]; [10]", "result": "4.8 ± 0.6", "unit": "percent fractional area"}, {"measurement": "α-SMA Total", "setting": "[3]; [10]", "result": "102 ± 10", "unit": "mg"}, {"measurement": "TG Relative", "setting": "[3]; liver triglycerides", "result": "37 ± 3", "unit": "mg per/g liver"}, {"measurement": "TG Total", "setting": "[3]; liver triglycerides", "result": "70 ± 5", "unit": "mg per/liver"}, {"measurement": "Compound 4 assay, before storage", "setting": "[4]; [11]", "result": 103, "unit": "%"}, {"measurement": "total impurities, before storage", "setting": "[4]; [11]", "result": 0.57, "unit": "%"}, {"measurement": "Compound 4 assay, after storage", "setting": "[4]; [12]", "result": 102.4, "unit": "%"}, {"measurement": "total impurities, after storage", "setting": "[4]; [12]", "result": 0.76, "unit": "%"}, {"measurement": "IC50", "setting": "GIP receptor [5]; 0% human serum albumin, read-out: GIP receptor IC 50, 0% HSA", "result": 264, "unit": "nM"}, {"measurement": "GIP receptor Ratio of HSA/No HSA", "setting": "GIP receptor [5]; [8]", "result": 1.25}, {"measurement": "IC50", "setting": "GIP receptor [5]; read-out: GIP receptor IC 50, 2% HSA, 2% human serum albumin", "result": 331, "unit": "nM"}, {"measurement": "AUC(0-inf)", "setting": "[6]", "result": 321, "unit": "µg·h/mL"}, {"measurement": "AUC(0-t)", "setting": "[6]", "result": 309, "unit": "µg·h/mL"}, {"measurement": "CL/F", "setting": "[6]", "result": 15.2, "unit": "mL/day/kg"}, {"measurement": "Cmax", "setting": "[6]", "result": 1890, "unit": "ng/mL"}, {"measurement": "Tmax", "setting": "[6]", "result": 20, "unit": "h"}, {"measurement": "Vd/F", "setting": "[6]", "result": 0.095, "unit": "L/kg"}, {"measurement": "half-life", "setting": "[6]", "result": 105, "unit": "h"}, {"measurement": "IC50", "setting": "GIP receptor [7]; read-out: GIP receptor IC 50", "result": 153, "unit": "nM"}]}
{"compound": "tirzepatide [reference compound]", "values": [{"measurement": "GLP-1 receptor % Binding avg at CMax, 0% HSA", "setting": "GLP-1 receptor [1]; 0% human serum albumin", "result": "−0.14", "unit": "%"}, {"measurement": "GLP-1 receptor % Binding avg at CMax, 2% HSA", "setting": "GLP-1 receptor [1]; 2% human serum albumin", "result": 33.01, "unit": "%"}, {"measurement": "binding affinity for albumin (in words)", "setting": "GLP-1 receptor [1]; inferred from the HSA ratios at GLP-1 and GIP receptors", "result": "greater than that of Compound 4 or of Compound 12"}, {"measurement": "GLP-1 receptor % Binding avg at CMax", "setting": "GLP-1 receptor [2]", "result": 0.20, "unit": "%"}, {"measurement": "Gal-3 Total", "setting": "[3]; [9]", "result": "138 ± 17", "unit": "mg"}, {"measurement": "α-SMA Total", "setting": "[3]; [10]", "result": "108 ± 22", "unit": "mg"}, {"measurement": "TG Total", "setting": "[3]; liver triglycerides", "result": "80 ± 11", "unit": "mg per/liver"}, {"measurement": "GIP receptor % Binding avg at CMax, 0% HSA", "setting": "GIP receptor [5]; 0% human serum albumin", "result": "−3.05", "unit": "%"}, {"measurement": "GIP receptor % Binding avg at CMax, 2% HSA", "setting": "GIP receptor [5]; 2% human serum albumin", "result": 10.07, "unit": "%"}, {"measurement": "GIP receptor % Binding avg at CMax", "setting": "GIP receptor [7]", "result": "−1.21", "unit": "%"}]}
